Assay results from PMC10226132, “First-in-Class Selective Inhibitors of the Lysine Acetyltransferase KAT8” (Journal of Medicinal Chemistry, 2023).
Like-named read-outs stand apart in the source and are kept apart here.

How the values were obtained:
Type in all cases: biochemical
KAT2B = molecular target: T1, KAT2B (Homo sapiens, UniProt Q92831); assay: HotSpot KAT assay, KAT2B; settings: enzyme 25 nM; NI = no inhibition at 200 μM; mean ± SD of three independent experiments
T1 construct: KAT2B (aa 492–658, 25 nM); purchased Reaction Biology Corporation
Procedure: (§1) The effects of the compounds on other KATs were determined using the HotSpot KAT assay (Reaction Biology Corporation, Malvern, PA, USA) according to the supplier’s procedure. The recombinant catalytic domains of human KAT2A (aa 323–837, 15 nM), KAT2B (aa 492–658, 25 nM), KAT3B (aa 1284–1672, 1 nM), KAT6A (aa 488–778, 10 nM), KAT6B (aa 657–1069, 10 nM), and full length human KAT5 (25 nM) and KAT7 (25 nM) were used. Each enzyme was incubated with the relevant histone peptide [H3 peptide for KAT2A, KAT2B, KAT3B, KAT6A, and KAT7 (2.5–5 μM, depending on the KAT isoform); H2A peptide for KAT5 (1.25 μM); H4 peptide for KAT6B (2.5 μM)] as a substrate and radio-isotope-labeled [^3H]Acetyl-CoA (0.2–1.5 μM, depending on the KAT isoform) as an acetyl donor in the assay buffer [50 mM Tris–HCl (pH 8.0), 50 mM NaCl, 0.1 mM EDTA, 1 mM DTT, 0.1 mM PMSF, 1% DMSO] for 1 h at 30 °C in the presence or absence of various compounds (1% DMSO final) titrated in a 2-fold serial dilution starting at 200 μM. Histone peptide acetylation was assessed by liquid scintillation counting using a Tri-Carb 2800TR Liquid Scintillation Analyzer (Perkin Elmer). Experiments were performed in biological triplicates. Signal reduction compared to control was plotted (as inhibition percentage) as a function of compound concentration. In cases in which an IC50 was calculated, the values were fitted by nonlinear regression (GraphPad Prism 8.0).

KAT3B = molecular target: T2, KAT3B (Homo sapiens, UniProt Q09472); assay: HotSpot KAT assay, KAT3B
T2 construct: KAT3B (aa 1284–1672, 1 nM); purchased Reaction Biology Corporation
T2 sequence (Q09472 1284-1672): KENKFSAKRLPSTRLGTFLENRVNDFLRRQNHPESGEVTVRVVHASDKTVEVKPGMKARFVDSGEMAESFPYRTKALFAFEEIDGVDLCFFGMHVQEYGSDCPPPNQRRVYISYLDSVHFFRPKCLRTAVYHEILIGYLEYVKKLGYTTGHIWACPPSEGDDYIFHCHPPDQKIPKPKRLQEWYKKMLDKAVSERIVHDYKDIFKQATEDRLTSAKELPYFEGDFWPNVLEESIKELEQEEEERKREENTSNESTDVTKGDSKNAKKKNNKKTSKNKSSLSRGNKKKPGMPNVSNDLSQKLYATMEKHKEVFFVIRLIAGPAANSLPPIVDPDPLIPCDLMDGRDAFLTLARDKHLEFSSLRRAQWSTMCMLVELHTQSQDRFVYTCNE
Procedure: The effects of the compounds on other KATs were determined using the HotSpot KAT assay (Reaction Biology Corporation, Malvern, PA, USA) according to the supplier’s procedure. […] Histone peptide acetylation was assessed by liquid scintillation counting using a Tri-Carb 2800TR Liquid Scintillation Analyzer (Perkin Elmer). Experiments were performed in biological triplicates. Signal reduction compared to control was plotted (as inhibition percentage) as a function of compound concentration. In cases in which an IC50 was calculated, the values were fitted by nonlinear regression (GraphPad Prism 8.0).

KAT2A = molecular target: T3, KAT2A (Homo sapiens, UniProt Q92830); assay: HotSpot KAT assay, KAT2A; settings: control compound; read-out: IC50 KAT2A (15 nM)
T3 construct: human KAT2A (aa 323–837, 15 nM); purchased Reaction Biology Corporation
Procedure: as §1

KAT8 = molecular target: T4, KAT8 (Homo sapiens, UniProt Q9H7Z6); assay: Radioactive KAT8 inhibition assay
T4 construct: using the previously purified KAT8 (173–458, 5 nM); 6xHis tag with TEV protease cleavage site (N, cleaved yes); made in house; host or cells: E. coli BL21(DE3)
T4 sequence (Q9H7Z6 173-458): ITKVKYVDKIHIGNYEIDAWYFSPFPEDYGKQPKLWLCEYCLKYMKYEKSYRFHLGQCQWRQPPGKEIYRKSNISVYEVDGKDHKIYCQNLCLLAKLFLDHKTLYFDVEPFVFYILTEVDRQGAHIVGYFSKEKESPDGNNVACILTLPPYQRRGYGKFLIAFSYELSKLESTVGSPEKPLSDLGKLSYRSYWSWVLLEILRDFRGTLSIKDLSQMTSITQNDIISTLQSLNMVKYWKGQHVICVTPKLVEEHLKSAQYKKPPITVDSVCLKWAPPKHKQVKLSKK
Procedure: Purified KAT8 was incubated with the relevant inhibitor (1% DMSO final) in a 2-fold serial dilution starting at 200 μM for 20 min at rt. Then, [^3H]Ac-CoA and biotinylated peptide were added to a total assay volume of 50 μL and the reaction mixture was incubated at rt for 4 h. The reaction was stopped, and the mixture was transferred to a 96-well streptavidin scintillant coated FlashPlate (Perkin Elmer) and incubated for 60 min at rt. The FlashPlate was washed with 0.1% Tween-20, and the liquid scintillation counting (MicroBeta Microplate Counter, Perkin Elmer) was employed to measure the radioactive signal. Experiments were performed in biological triplicates. Signal reduction compared to control was plotted (as inhibition percentage) as a function of compound concentration and fitted by nonlinear regression (GraphPad Prism 8.0) finally yielding the IC50 values.

[1] = read-out: IC50 KAT3B (1 nM), enzyme 1 nM, NI = no inhibition at 200 μM, mean ± SD of three independent experiments
[2] = read-out: IC50 KAT8 (5 nM), enzyme 5 nM, 2-fold serial dilution from 200 μM, NI = no inhibition at 200 μM, mean ± SD of three independent experiments

T1 sequence (Q92831 492-658): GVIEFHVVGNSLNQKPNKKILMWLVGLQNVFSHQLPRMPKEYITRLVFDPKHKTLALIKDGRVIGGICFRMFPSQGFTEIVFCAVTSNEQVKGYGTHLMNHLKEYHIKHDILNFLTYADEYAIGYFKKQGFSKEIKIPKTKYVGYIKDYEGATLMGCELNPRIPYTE
T3 sequence (Q92830 323-837): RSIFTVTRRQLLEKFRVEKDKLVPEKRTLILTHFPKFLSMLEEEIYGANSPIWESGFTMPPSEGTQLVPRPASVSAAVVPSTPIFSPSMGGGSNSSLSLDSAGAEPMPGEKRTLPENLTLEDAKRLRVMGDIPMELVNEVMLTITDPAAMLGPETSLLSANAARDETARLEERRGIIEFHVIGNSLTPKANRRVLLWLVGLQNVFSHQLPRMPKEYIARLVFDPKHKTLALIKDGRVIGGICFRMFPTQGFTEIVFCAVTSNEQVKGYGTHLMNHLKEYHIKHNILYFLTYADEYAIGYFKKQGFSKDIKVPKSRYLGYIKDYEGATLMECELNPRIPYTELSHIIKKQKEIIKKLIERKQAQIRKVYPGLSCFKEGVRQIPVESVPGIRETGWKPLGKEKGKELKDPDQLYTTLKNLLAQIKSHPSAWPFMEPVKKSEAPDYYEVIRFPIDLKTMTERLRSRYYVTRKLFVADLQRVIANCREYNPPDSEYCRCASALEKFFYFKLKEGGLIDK

Row | Compound | IC50 (KAT2B) | IC50 (KAT3B; [1]) | IC50 (KAT2A) | IC50 (KAT8; [2]) | IC50 (KAT8) | IC50 (KAT3B)
1 | CC1=NN(c2ccc(C(=O)O)cc2)C(=O)/C1=C\c1cccn1C [Compound 28, (Z)-4-(3-Methyl-4-((1-methyl-1H-pyrrol-2-yl)methylene)-5-oxo-4,5-dihydro-1H-pyrazol-1-yl)benzoic Acid] | > 200 µM | 20.8 ± 1 µM | – | 15.1 ± 1 µM | – | –
2 | CC1=NN(c2ccc(C(=O)O)cc2)C(=O)/C1=C\c1cccn1-c1ccccc1 [Compound 29, (Z)-4-(3-Methyl-5-oxo-4-((1-phenyl-1H-pyrrol-2-yl)methylene)-4,5-dihydro-1H-pyrazol-1-yl)benzoic Acid] | > 200 µM | 14.6 ± 0.6 µM | – | 18.6 ± 0.8 µM | – | –
3 | CC1=NN(c2ccc(C(=O)O)cc2)C(=O)/C1=C\c1ccccc1 [Compound 22, (Z)-4-(4-Benzylidene-3-methyl-5-oxo-4,5-dihydro-1H-pyrazol-1-yl)benzoic Acid] | > 200 µM | > 200 µM | – | 29.2 ± 1.7 µM | – | –
4 | CC1=NN(c2ccc(C(=O)O)cc2)C(=O)/C1=C\c1c[nH]c2ccccc12 [Compound 27, (Z)-4-(4-((1H-Indol-3-yl)methylene)-3-methyl-5-oxo-4,5-dihydro-1H-pyrazol-1-yl)benzoic Acid] | > 200 µM | 4.6 ± 0.2 µM | – | 38.1 ± 2.9 µM | – | –
5 | O=C(O)c1ccc(N2N=C(Cc3ccccc3)/C(=C/c3ccc[nH]3)C2=O)cc1 [Compound 35, (Z)-4-(4-((1H-Pyrrol-2-yl)methylene)-3-benzyl-5-oxo-4,5-dihydro-1H-pyrazol-1-yl)benzoic Acid] | > 200 µM | > 200 µM | – | – | 38.1 ± 3.8 µM | –
6 | CC1=NN(c2cccc(C(=O)O)c2)C(=O)/C1=C\c1ccc[nH]1 [Compound 36, (Z)-3-(4-((1H-Pyrrol-2-yl)methylene)-3-methyl-5-oxo-4,5-dihydro-1H-pyrazol-1-yl)benzoic Acid] | > 200 µM | > 200 µM | – | 19.3 ± 1.3 µM | – | –
7 | CC1=NN(c2ccc(C(=O)O)cc2)C(=O)/C1=C\c1cc2ccccc2[nH]1 [Compound 26, (Z)-4-(4-((1H-Indol-2-yl)methylene)-3-methyl-5-oxo-4,5-dihydro-1H-pyrazol-1-yl)benzoic Acid] | > 200 µM | 1.6 ± 0.08 µM | – | 20.1 ± 0.9 µM | – | –
8 | Cc1nn(-c2ccc(C(=O)O)cc2)c(O)c1Cc1ccccc1 [Compound 32, 4-(4-Benzyl-5-hydroxy-3-methyl-1H-pyrazol-1-yl)benzoic Acid] | > 200 µM | > 200 µM | – | 26.9 ± 2.3 µM | – | –
9 | CC1=NN(c2ccc(C(=O)O)cc2)C(=O)/C1=C\c1cc(C(=O)c2ccccc2C)c[nH]1 [Compound 13, (Z)-4-(3-Methyl-4-((4-(2-methylbenzoyl)-1H-pyrrol-2-yl)methylene)-5-oxo-4,5-dihydro-1H-pyrazol-1-yl)benzoic Acid] | > 200 µM | 8.9 ± 0.6 µM | – | 95 ± 10.2 µM | – | –
10 | CC1=NN(c2ccc(C(=O)O)cc2)C(=O)C1=Cc1ccco1 (mixture of isomers) [Compound 20, 4-(4-(Furan-2-ylmethylene)-3-methyl-5-oxo-4,5-dihydro-1H-pyrazol-1-yl)benzoic Acid] | > 200 µM | – | – | – | 16.8 ± 0.9 µM | 6.3 ± 0.4 µM
11 | CC1=NN(c2ccc(C(=O)O)cc2)C(=O)/C1=C\c1cccs1 [Compound 21, (Z)-4-(3-Methyl-5-oxo-4-(thiophen-2-ylmethylene)-4,5-dihydro-1H-pyrazol-1-yl)benzoic Acid] | > 200 µM | 26.5 ± 1.7 µM | – | 20.8 ± 1.2 µM | – | –
12 | CC1=NN(c2ccc(C(=O)O)cc2)C(=O)/C1=C\c1cc(C(=O)c2ccccc2)c[nH]1 [Compound 1, (Z)-4-(4-((4-Benzoyl-1H-pyrrol-2-yl)methylene)-3-methyl-5-oxo-4,5-dihydro-1H-pyrazol-1-yl)benzoic Acid] | > 200 µM | 13.6 ± 1 µM | – | 90.5 ± 11.3 µM | – | –

Results, then the compound that gave them:

Row | IC50 (KAT2B) | IC50 (KAT3B; [1]) | IC50 (KAT2A) | IC50 (KAT8; [2]) | IC50 (KAT8) | IC50 (KAT3B) | Compound
13 | 39.7 ± 1.1 µM | 22.9 ± 1.3 µM | 42.1 µM | – | – | – | CCCCCCCCCCCCCCCc1cccc(O)c1C(=O)O [I (AA), anacardic acid, reference compound]
14 | > 200 µM | > 200 µM | – | 19.4 ± 0.9 µM | – | – | CC1=NN(c2ccc(C(=O)O)cc2)C(=O)/C1=C(/C)c1ccc[nH]1 [Compound 30, (Z)-4-(4-(1-(1H-Pyrrol-2-yl)ethylidene)-3-methyl-5-oxo-4,5-dihydro-1H-pyrazol-1-yl)benzoic Acid]
15 | > 200 µM | 29.2 ± 1.7 µM | – | 31.8 ± 2.1 µM | – | – | CC1=NN(c2ccc(C(=O)O)cc2)C(=O)/C1=C\c1c[nH]cn1 [Compound 25, (Z)-4-(4-((1H-Imidazol-4-yl)methylene)-3-methyl-5-oxo-4,5-dihydro-1H-pyrazol-1-yl)benzoic Acid]
16 | > 200 µM | 5.3 ± 0.3 µM | – | 88.9 ± 12.1 µM | – | – | CC1=NN(c2ccc(C(=O)O)cc2)C(=O)/C1=C\c1cc(C(=O)c2ccccc2Cl)c[nH]1 [Compound 5, (Z)-4-(4-((4-(2-Chlorobenzoyl)-1H-pyrrol-2-yl)methylene)-3-methyl-5-oxo-4,5-dihydro-1H-pyrazol-1-yl)benzoic Acid]
17 | > 200 µM | > 200 µM | – | 33 ± 2 µM | – | – | CC1=NN(c2ccc(C(=O)O)cc2)C(=O)/C1=C\c1cc[nH]c1 [Compound 23, (Z)-4-(4-((1H-Pyrrol-3-yl)methylene)-3-methyl-5-oxo-4,5-dihydro-1H-pyrazol-1-yl)benzoic Acid]
18 | > 200 µM | > 200 µM | – | 17.2 ± 1.2 µM | – | – | Cc1nn(-c2ccc(C(=O)O)cc2)c(O)c1Cc1ccc[nH]1 [Compound 31, 4-(4-((1H-Pyrrol-2-yl)methyl)-5-hydroxy-3-methyl-1H-pyrazol-1-yl)benzoic Acid]
19 | > 200 µM | > 200 µM | – | 44.1 ± 3 µM | – | – | CC1=NN(c2ccc(C(=O)O)cc2)C(=O)/C1=C\c1ccn[nH]1 [Compound 24, (Z)-4-(4-((1H-Pyrazol-5-yl)methylene)-3-methyl-5-oxo-4,5-dihydro-1H-pyrazol-1-yl)benzoic Acid]
20 | > 200 µM | > 200 µM | – | 13.9 ± 0.9 µM | – | – | CC(C)C1=NN(c2ccc(C(=O)O)cc2)C(=O)/C1=C\c1ccc[nH]1 [Compound 33, (Z)-4-(4-((1H-Pyrrol-2-yl)methylene)-3-isopropyl-5-oxo-4,5-dihydro-1H-pyrazol-1-yl)benzoic Acid]
